pEC50: −log10 of the molar value. Peptide text beside a SMILES is read from it.
Legend:
[1] = Hemolymph triglyceride levels after peptide injection; assay type: in vivo, Carcinus maenas; details: lipid mobilization bioassay
[2] = system: putative adipokinetic hormone/corazonin-related peptide receptor (ACPR); test: Receptor assay with putative ACPR; assay type: cell-based, Carcinus maenas
Procedure: (§1) Chinese hamster ovary (CHO-K1) cells containing stably expressed apoaequorin (Perkin Elmer, Boston, MA) and either Gα16 or Gq subunit (control cells) were cultured in Dulbecco's Modified Eagle Medium (DMEM) F-12 Nutrient Mixture GlutaMax (Gibco®) supplemented with 10% fetal bovine serum (Gibco®). Cells were maintained in vented T75 flasks at 37°C in 5% CO2.
Cells grown in a monolayer to approximately 60% confluency in T75 flasks were transfected with pcDNA3.1 constructs using FugeneHD (Promega) according to the manufacturer's recommendations. Briefly, transfection medium was prepared by combining 800 μl Opti-MEM® (Gibco) with 10 μg vector and 30 μl Fugene HD in a 2 ml polystyrene tube and incubated for 10 min at room temperature. […]
On the day of the assay, cells were detached from the culture flask by incubating for 12 min in 5 ml 0.2% EDTA in PBS. […] Cell suspensions were gently stirred and injected in 50 μl aliquots into each well using a Mithras LB 940 microplate reader (Berthold Technologies, Bad-Wildbad, Germany) and light emission (Ca^2+ response) recorded for 30 s. Cells were then lysed by injection of 0.3% Triton-X in BSA medium and light emission recorded for a further 10 s to measure total Ca^2+ response. […] Data was analyzed using MikroWin v5.18 (Mikrotek Laborsysteme GmbH) and SigmaPlot v.13 (Systat Software, Inc.). […]

[3] = Hemolymph triglyceride levels after peptide injection; assay type: in vivo, Carcinus maenas
Procedure: (§2) Adipokinetic and glucose mobilizing activity of […] and ACP were performed by measurement of triglycerides in hemolymph ([…] et al., [2014]) and glucose (Chung and Webster, [1996]). Hemolymph samples (ca. 100 μl) were taken from crabs injected with each peptide at 0 and 90 min, and subsequently assayed.

[4] = molecular target: T1, C. maenas RPCHR (red pigment concentrating hormone receptor) (Carcinus maenas, UniProt A0A2L0WQF2); test: Aequorin luminescence Ca2+ mobilization in CHO-K1-Aeq cells transiently expressing RPCHR; assay type: cell-based; details: for pEC50: CHO-K1-Aeq cells (without Gα16) transiently expressing RPCHR, luminescence response normalized to total Ca2+ response, dose response curves, means of n = 4; for binding to / activation of RPCHR: micromolar concentrations
T1 sequence (A0A2L0WQF2 1-529): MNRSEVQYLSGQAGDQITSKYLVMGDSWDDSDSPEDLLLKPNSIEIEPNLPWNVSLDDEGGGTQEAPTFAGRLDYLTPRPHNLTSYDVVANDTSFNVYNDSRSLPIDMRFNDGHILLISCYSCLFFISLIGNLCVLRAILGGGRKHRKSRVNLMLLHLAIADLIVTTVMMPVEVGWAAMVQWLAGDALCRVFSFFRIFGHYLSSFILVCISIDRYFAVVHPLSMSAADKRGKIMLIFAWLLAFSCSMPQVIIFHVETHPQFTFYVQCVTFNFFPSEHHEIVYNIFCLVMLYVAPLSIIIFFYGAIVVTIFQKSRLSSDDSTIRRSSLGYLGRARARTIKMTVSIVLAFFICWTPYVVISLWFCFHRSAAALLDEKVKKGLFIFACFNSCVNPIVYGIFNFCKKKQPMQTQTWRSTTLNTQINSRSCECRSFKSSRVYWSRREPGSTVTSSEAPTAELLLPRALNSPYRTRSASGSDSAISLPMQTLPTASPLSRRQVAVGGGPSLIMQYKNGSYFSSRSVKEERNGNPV
Procedure: as §1
(§3) Cells grown in a monolayer to approximately 60% confluency in T75 flasks were transfected with pcDNA3.1 constructs using FugeneHD (Promega) according to the manufacturer's recommendations. Briefly, transfection medium was prepared by combining 800 μl Opti-MEM® (Gibco) with 10 μg vector and 30 μl Fugene HD in a 2 ml polystyrene tube and incubated for 10 min at room temperature. The transfection reagent was added to 5 ml of fresh culture media and the cells incubated overnight at 37°C in 5% CO2. After 24 h, an additional 10 ml of culture media were added to the flasks and the cells returned to 37°C at 5% CO2 for a further overnight incubation.
(§4) On the day of the assay, cells were detached from the culture flask by incubating for 12 min in 5 ml 0.2% EDTA in PBS. The cells were washed with 10 ml DMEM clear DMEM/F-12 containing L-glutamine, 15 mM HEPES and moved to 50 ml centrifuge tubes. Cells were centrifuged for 5 min at 260 g and resuspended to a concentration of 5 × 10^6 cells ml^−1 in 0.2 μm filtered BSA medium (DMEM/F-12 containing L-glutamine, 15 mM HEPES + 0.1% BSA). Coelenterazine h (Invitrogen, Paisley, UK) was added to a concentration of 5 μM and the cells incubated for 4 h in the dark at room temperature whilst gently rocking. The cells were diluted 10-fold and incubated for a further 60 min before use in the assay. Synthetic peptides (GeneCust, Dudelange, Luxembourg) were reconstituted in 30% acetonitrile, dried in small aliquots by vacuum centrifugation and subsequently redissolved in BSA medium. Fifty microliter aliquots were then dispensed into quadruplicate wells of a white 96-well plate (OptiPlate, PerkinElmer). Cell suspensions were gently stirred and injected in 50 μl aliquots into each well using a Mithras LB 940 microplate reader (Berthold Technologies, Bad-Wildbad, Germany) and light emission (Ca^2+ response) recorded for 30 s. Cells were then lysed by injection of 0.3% Triton-X in BSA medium and light emission recorded for a further 10 s to measure total Ca^2+ response. BSA medium was used for blank measurements (6 replicate wells per plate) and mock transfection with empty vectors carried out for negative controls. Data was analyzed using MikroWin v5.18 (Mikrotek Laborsysteme GmbH) and SigmaPlot v.13 (Systat Software, Inc.). Receptor response was normalized against total Ca^2+ response.

[5] = system: semi-isolated heart; test: Cardioactivity on semi-isolated heart preparations; parameters: species or system Carcinus maenas; details: superfusion
Procedure: Cardioactivity of […], and ACP was performed on semi-isolated heart preparations of C. maenas. Crabs (ca. 65 mm carapace width) were ice-anesthetized and rapidly decerebrated before removing all limbs and the dorsal carapace to expose the heart and pericardial cavity. The heart was connected to a force transducer (MLT0210/A) via a micro fishing hook (size 28) and fine nylon (0.08 mm) monofilament. Connection to a PC with Chart 4.0 was via a Bridge Pod (ML301) and Powerlab 4/20 (AD Instruments Pty Ltd, Castle Hill, NSW, Australia). Transducer gain was set at maximum sensitivity (200 μV). Heart preparations were initially perfused with C. maenas physiological saline (Saver et al., [1999]) at room temperature (20°C). Once a stable heart output was achieved, hearts were firstly perfused with 1 ml saline, followed by increasing concentrations of peptides, applied in 1 ml. Crustacean cardioactive peptide (CCAP) (Bachem, Bubendorf, Switzerland), or proctolin (Sigma, Poole, UK) were positive controls (10^-11-10^-7 M). Test peptides ([…]) were perfused at 10^-8-10^-6 M for approximately 2 min at each concentration.

[6] = Hemolymph glucose levels after peptide injection; assay type: in vivo, Carcinus maenas; details: injection 100, 10 pmol per crab
Procedure: as §2

[7] = system: red and black epidermal chromatophores, dactyl of the 5th walking leg; test: Chromatophore pigment migration bioassay in vivo; parameters: species or system Carcinus maenas; details: for pigment migration (concentration) in red and black epidermal chromatophores: injection after 40 min dispersion with 5 pmol PDH, 0.1–100 pmol/crab for RPCH or AKH, 100 pmol/crab for CRZ or ACP, scored 5 and 20 min after injection
Procedure: Pigmentary effector activity of […], Locusta migratoria AKH-I, and ACP were measured in vivo, using small (15-20 mm carapace width) C. maenas. Crabs were firstly adapted to a white background, light intensity 300 lx for 1 h. Pigment dispersion of red and black chromatophores in the […] of the 5th walking leg were microscopically observed and indices of dispersion scored according to Hogben and Slome ([1931]). Red and black chromatophores were firstly fully dispersed by injection of 5 pmol C. maenas pigment dispersing hormone ([…]) in 10 μl saline into the hypobranchial sinus, using hand-drawn glass microcapillaries. Chromatophore dispersion indices were scored at 0, 20, 40 min. Peptides were then injected and chromatophores subsequently scored after 5 and 20 min.

[8] = molecular target: T2, C. maenas CRZR (corazonin receptor) (Carcinus maenas, UniProt A0A2L0WQE5); test: Aequorin luminescence Ca2+ mobilization in CHO-K1-Aeq cells transiently expressing CRZR; assay type: cell-based; details: for pEC50: CHO-K1-Aeq cells (without Gα16) transiently expressing CRZR, luminescence response normalized to total Ca2+ response, dose response curves, means of n = 4; for bioluminescent response at CRZR compared with the homologous crab/insect ligand (Arg^7-CRZ): several independent experiments
T2 sequence (A0A2L0WQE5 1-617): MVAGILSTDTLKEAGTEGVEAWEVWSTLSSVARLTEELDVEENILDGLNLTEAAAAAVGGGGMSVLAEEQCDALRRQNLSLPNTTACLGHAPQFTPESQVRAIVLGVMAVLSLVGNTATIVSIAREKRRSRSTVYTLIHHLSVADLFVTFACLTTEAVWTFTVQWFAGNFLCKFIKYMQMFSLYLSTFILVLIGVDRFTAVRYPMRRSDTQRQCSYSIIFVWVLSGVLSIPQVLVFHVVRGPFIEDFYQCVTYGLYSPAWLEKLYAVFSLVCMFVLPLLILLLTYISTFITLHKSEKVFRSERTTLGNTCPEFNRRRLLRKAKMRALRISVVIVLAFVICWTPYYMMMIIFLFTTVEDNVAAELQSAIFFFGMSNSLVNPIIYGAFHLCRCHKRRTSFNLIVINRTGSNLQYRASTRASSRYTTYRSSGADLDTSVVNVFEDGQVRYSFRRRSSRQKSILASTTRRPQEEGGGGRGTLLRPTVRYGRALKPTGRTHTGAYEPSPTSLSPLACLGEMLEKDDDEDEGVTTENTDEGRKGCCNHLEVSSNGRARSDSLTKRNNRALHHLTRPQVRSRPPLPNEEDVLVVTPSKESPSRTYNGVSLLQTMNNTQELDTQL
Procedure: as §1, §3, §4

Compound: CC[C@H](C)[C@H](NC(=O)[C@@H]1CCC(=O)N1)C(=O)N[C@H](C(=O)N[C@@H](Cc1ccccc1)C(=O)N[C@@H](CO)C(=O)N[C@@H](CCCNC(=N)N)C(=O)N[C@@H](CO)C(=O)N[C@@H](Cc1c[nH]c2ccccc12)C(=O)N[C@H](C(=O)N1CCC[C@H]1C(=O)N[C@@H](CCC(N)=O)C(N)=O)C(C)C)[C@@H](C)O [ACP] (HELM PEPTIDE1{[Glp].I.T.F.S.R.S.W.V.P.Q.[am]}$$$$V2.0)
- effect on hemolymph diacylglycerol levels [1]: completely without effect
- binding to putative ACPR [2]: did not bind
- hemolymph triglyceride levels, 0 min ([3]; injection 100 pmol per crab, 0 min, mean ± 1 SEM, n = 6, SEM): 1.47 ± 0.44 µg/µL
- hemolymph triglyceride levels, 90 min ([3]; injection 100 pmol per crab, 90 min, mean ± 1 SEM, n = 6, no significant change over 90 min, SEM): 1.28 ± 0.34 µg/µL
- activity on circulating triglycerides ([3]; injection 100, 10 pmol per crab): neither CRZ nor ACP exhibited any biological activity
- pEC50 [4]: < 4.70
- binding to / activation of RPCHR [4]: vanishingly small dose-dependent binding
- cardioacceleratory effect on semi-isolated hearts ([5]; concentrations up to 10^−6 M, 20°C): completely without cardioacceleratory effect
- activity on circulating glucose [6]: neither CRZ nor ACP exhibited any biological activity
- pigment migration (concentration) in red and black epidermal chromatophores [7]: completely ineffective

Compound: C[C@@H](O)[C@H](NC(=O)[C@H](Cc1c[nH]c2ccccc12)NC(=O)CNC(=O)[C@H](Cc1c[nH]cn1)NC(=O)[C@H](CO)NC(=O)[C@H](Cc1ccc(O)cc1)NC(=O)[C@H](CCC(N)=O)NC(=O)[C@H](Cc1ccccc1)NC(=O)[C@@H](NC(=O)[C@@H]1CCC(=O)N1)[C@@H](C)O)C(=O)N[C@@H](CC(N)=O)C(N)=O [His^7-CRZ] (HELM PEPTIDE1{[Glp].T.F.Q.Y.S.H.G.W.T.N.[am]}$$$$V2.0)
- pEC50 [8]: 9.52
- bioluminescent response at CRZR compared with the homologous crab/insect ligand (Arg^7-CRZ) [8]: somewhat higher bioluminescent response at lower doses

Compound: CC(C)C[C@H](NC(=O)[C@@H]1CCC(=O)N1)C(=O)N[C@@H](CC(N)=O)C(=O)N[C@@H](Cc1ccccc1)C(=O)N[C@H](C(=O)N1CCC[C@H]1C(=O)N[C@@H](CC(N)=O)C(=O)N[C@@H](Cc1c[nH]c2ccccc12)C(=O)NCC(=O)N[C@H](C(N)=O)[C@@H](C)O)[C@@H](C)O [Lom AKH-1, reference compound] (HELM PEPTIDE1{[Glp].L.N.F.T.P.N.W.G.T.[am]}$$$$V2.0)
- pEC50 [4]: 10.15
- pigment migration (concentration) in red and black epidermal chromatophores [7]: slightly less effective compared to RPCH

Compound: C[C@@H](O)[C@H](NC(=O)[C@H](Cc1c[nH]c2ccccc12)NC(=O)CNC(=O)[C@H](Cc1c[nH]cn1)NC(=O)[C@H](CO)NC(=O)[C@H](Cc1ccc(O)cc1)NC(=O)[C@@H](NC(=O)[C@H](Cc1ccccc1)NC(=O)[C@@H](NC(=O)[C@@H]1CCC(=O)N1)[C@@H](C)O)[C@@H](C)O)C(=O)N[C@@H](CC(N)=O)C(N)=O [Thr^4, His^7-CRZ] (HELM PEPTIDE1{[Glp].T.F.T.Y.S.H.G.W.T.N.[am]}$$$$V2.0)
- pEC50 [8]: 9.85
- bioluminescent response at CRZR compared with the homologous crab/insect ligand (Arg^7-CRZ) [8]: somewhat higher bioluminescent response at lower doses

Compound: GnRH: evolutionarily-related peptide (mammalian) GnRH, gonadotropin releasing hormone [reference compound]
- binding to / activation of RPCHR [4]: Neither receptor was activated
- activation of CRZR ([8]; even at micromolar concentrations): Neither receptor was activated

Compound: NSELINSILGLPKVMNDA-NH2 [PDH, C. maenas pigment dispersing hormone, reference compound]
- pigment dispersion of chromatophores ([7]; injection of 5 pmol, over 40 min): expansion of both red and black chromatophores

Compound: proctolin [reference compound]
- kind of response on semi-isolated hearts ([5]; positive control): very pronounced inotropic response
- threshold response on semi-isolated hearts ([5]; positive controls, CCAP: most sensitive preparations): about 10^−9 M
